Results: article PMC3607609 (PLoS ONE, 2013)
Several values for one entry are separate records, joined by “and”; a condition that tells them apart may be missing. Equal values may be shown once. Entries after “also recorded” stand apart in the source; their conditions may differ. Read-outs that look alike come from different tables or passages of the source. Positions of bridges follow the written chain, without caps; N, C: chain ends. Residues, ends and D or L forms follow the SMILES beside them.

Columns and labels:
[1] = biological target: Cav2.2 channels endogenously expressed in SH-SY5Y cells (Homo sapiens, UniProt Q00975); experiment: cell-based
Cav2.2 channels endogenously expressed in SH-SY5Y cells, sequence (Q00975 whole entry, looked up): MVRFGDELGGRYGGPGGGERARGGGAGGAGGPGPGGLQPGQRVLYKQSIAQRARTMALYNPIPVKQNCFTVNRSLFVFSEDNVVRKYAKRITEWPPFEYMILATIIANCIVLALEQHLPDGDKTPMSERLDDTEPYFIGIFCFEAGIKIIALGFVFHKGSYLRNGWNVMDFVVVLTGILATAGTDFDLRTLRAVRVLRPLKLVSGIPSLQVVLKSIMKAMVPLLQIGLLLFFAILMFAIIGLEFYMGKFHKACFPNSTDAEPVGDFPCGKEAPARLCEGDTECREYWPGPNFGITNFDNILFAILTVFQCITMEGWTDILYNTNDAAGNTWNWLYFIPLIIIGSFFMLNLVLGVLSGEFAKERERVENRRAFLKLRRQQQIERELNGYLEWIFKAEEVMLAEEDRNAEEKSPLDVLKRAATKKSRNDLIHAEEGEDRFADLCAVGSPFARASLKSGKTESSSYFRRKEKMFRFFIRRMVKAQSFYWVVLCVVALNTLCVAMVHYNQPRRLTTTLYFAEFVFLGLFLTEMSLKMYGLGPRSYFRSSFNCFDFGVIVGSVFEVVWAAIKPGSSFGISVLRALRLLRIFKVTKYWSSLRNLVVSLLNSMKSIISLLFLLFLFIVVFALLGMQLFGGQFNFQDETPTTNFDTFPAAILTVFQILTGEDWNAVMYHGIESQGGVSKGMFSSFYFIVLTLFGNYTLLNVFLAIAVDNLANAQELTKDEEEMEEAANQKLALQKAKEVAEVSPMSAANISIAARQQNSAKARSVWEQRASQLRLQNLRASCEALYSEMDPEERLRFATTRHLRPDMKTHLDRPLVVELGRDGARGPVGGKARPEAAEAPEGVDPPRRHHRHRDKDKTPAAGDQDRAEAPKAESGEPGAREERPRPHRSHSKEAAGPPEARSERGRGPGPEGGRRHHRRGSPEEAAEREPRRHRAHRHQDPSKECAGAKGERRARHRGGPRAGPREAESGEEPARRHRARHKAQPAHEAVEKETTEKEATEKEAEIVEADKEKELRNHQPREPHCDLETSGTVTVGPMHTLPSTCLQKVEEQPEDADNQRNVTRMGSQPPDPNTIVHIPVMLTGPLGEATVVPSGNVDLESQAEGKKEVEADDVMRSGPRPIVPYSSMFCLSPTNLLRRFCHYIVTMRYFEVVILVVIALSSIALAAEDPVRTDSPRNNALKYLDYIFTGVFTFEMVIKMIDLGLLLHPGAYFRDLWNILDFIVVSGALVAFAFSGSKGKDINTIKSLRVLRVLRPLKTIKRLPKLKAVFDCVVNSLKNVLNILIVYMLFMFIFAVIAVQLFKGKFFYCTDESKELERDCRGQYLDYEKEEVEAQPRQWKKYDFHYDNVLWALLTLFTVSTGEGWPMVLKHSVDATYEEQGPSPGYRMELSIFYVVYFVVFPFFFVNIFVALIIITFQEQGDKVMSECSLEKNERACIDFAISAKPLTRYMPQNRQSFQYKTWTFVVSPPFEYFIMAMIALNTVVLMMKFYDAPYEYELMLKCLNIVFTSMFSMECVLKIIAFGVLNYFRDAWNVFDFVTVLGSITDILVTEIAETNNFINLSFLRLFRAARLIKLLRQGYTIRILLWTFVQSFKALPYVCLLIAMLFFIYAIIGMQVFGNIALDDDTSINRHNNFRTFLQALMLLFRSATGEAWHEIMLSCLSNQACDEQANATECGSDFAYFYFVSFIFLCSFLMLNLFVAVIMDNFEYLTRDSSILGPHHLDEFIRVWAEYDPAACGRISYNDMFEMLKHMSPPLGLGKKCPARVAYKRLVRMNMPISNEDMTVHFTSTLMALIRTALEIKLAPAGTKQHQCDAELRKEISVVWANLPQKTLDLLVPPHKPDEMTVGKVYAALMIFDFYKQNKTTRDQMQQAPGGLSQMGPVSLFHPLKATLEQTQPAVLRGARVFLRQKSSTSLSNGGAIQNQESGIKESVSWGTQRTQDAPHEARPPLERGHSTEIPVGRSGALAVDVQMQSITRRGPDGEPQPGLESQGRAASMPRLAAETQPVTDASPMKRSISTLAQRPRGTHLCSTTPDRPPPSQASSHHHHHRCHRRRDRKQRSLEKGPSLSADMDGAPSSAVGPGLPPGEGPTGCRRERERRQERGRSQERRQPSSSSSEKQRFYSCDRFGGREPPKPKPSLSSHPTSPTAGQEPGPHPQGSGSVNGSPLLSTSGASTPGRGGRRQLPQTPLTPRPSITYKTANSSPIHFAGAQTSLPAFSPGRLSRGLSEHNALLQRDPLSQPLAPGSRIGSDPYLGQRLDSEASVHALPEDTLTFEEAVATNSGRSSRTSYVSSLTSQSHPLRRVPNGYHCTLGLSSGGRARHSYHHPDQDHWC

[2] = biological target: Cav2.2 expressed in rat brain (Rattus norvegicus, UniProt Q02294); experiment: biochemical; type: binding, rat (male Wistar)
Cav2.2 expressed in rat brain, sequence (Q02294 whole entry, looked up): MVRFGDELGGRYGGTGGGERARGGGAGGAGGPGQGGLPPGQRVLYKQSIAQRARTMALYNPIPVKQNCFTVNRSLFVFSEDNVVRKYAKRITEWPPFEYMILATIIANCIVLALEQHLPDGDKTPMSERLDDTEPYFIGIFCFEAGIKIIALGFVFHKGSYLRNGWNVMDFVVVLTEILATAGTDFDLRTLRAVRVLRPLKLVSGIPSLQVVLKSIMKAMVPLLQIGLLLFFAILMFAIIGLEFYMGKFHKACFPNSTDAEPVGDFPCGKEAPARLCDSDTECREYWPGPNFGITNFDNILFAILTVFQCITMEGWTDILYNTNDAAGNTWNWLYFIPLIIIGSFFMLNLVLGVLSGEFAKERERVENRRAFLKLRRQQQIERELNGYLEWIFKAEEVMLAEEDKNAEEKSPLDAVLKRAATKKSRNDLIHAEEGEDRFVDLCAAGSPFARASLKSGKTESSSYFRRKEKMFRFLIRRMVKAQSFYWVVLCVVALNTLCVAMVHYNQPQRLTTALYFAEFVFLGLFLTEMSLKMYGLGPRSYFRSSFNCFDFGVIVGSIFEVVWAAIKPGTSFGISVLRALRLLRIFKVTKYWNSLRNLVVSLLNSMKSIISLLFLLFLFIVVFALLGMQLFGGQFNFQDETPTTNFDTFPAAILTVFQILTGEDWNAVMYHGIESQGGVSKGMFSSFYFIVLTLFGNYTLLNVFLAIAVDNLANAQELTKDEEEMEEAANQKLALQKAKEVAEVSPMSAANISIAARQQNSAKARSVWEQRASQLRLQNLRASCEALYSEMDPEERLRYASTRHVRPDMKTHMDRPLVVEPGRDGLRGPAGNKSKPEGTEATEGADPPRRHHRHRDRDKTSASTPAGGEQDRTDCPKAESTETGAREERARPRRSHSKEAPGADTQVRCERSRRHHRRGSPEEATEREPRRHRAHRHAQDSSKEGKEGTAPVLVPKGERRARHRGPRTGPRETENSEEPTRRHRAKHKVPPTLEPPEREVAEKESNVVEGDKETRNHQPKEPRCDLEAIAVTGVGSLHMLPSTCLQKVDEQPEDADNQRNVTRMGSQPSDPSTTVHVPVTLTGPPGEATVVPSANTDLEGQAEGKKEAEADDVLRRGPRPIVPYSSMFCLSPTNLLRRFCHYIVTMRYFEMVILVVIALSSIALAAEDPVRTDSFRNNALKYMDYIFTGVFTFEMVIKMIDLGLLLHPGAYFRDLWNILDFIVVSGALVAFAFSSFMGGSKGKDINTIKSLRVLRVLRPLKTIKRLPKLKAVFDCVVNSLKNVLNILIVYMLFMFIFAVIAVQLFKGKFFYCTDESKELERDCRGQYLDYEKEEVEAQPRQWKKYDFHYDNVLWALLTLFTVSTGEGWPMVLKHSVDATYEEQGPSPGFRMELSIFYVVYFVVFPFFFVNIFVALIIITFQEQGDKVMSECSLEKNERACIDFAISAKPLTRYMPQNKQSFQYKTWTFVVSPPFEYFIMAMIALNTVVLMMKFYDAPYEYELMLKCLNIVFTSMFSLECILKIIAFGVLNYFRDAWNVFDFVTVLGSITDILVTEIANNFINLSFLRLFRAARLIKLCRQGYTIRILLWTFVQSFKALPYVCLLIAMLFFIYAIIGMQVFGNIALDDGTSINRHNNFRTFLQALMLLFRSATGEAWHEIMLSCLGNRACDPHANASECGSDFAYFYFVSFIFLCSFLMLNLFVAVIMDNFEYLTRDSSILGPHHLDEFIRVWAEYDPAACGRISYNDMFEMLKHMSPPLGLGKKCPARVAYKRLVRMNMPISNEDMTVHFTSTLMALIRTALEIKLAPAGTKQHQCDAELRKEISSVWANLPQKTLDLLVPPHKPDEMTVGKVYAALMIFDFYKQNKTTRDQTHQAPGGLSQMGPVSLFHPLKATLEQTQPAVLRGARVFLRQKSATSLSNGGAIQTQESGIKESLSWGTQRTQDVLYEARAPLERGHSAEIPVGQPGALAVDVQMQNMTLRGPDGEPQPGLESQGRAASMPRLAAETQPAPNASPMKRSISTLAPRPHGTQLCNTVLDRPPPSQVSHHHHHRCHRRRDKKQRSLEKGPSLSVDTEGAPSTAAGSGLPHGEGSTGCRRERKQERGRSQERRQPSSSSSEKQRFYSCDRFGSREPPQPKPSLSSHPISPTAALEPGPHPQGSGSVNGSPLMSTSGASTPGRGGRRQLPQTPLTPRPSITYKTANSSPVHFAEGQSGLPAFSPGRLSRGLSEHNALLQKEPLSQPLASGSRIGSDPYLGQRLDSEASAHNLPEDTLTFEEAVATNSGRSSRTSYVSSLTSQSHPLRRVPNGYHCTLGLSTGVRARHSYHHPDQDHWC

[3] = biological target: Cav2.2 expressed in SH-SY5Y membranes (Homo sapiens, UniProt Q00975); experiment: biochemical; type: binding
Cav2.2 expressed in SH-SY5Y membranes, sequence (Q00975 whole entry, looked up): as the sequence (Q00975 whole entry, looked up) above

[4] = biological target: Cav2.2 expressed in SH-SY5Y whole cell (Homo sapiens, UniProt Q00975); experiment: cell-based; type: binding
Cav2.2 expressed in SH-SY5Y whole cell, sequence (Q00975 whole entry, looked up): as above

α2δ = tested on: α2δ; parameters: method as in PMID 19559597; conditions: cited from earlier work
[5] = tested on: resistant KCl-evoked Ca^2+ responses in SH-SY5Y cells; experiment: cells; type: cell-based, human; conditions: for IC50: Homo sapiens, SH-SY5Y, read-out: Ca2+ inhibition IC50, resistant responses
Cav3 = tested on: Cav3; parameters: method as in PMID 10991994, PMID 9481480; conditions: different systems; cited from earlier work
L-type channels = tested on: L-type channels; parameters: method as in PMID 10991994, PMID 7565636; conditions: cited from earlier work
[6] = biological target: Cav1 channels endogenously expressed in SH-SY5Y cells (Homo sapiens, UniProt Q01668); experiment: Inhibition of KCl-evoked Cav1 Ca2+ responses in presence of CVID, FLIPR-Tetra; type: cell-based; conditions: in presence of saturating CVID
[7] = tested on: Cav channels endogenously expressed in SH-SY5Y cells; type: cell-based, human
[8] = in presence of CVID and nifedipine, agatoxins and SNX 482 up to 10 µM, mibefradil 30 µM

CSCC[C@@H]1NC(=O)[C@H](CC(C)C)NC(=O)[C@H](CCCCN)NC(=O)[C@H](CO)NC(=O)[C@@H]2CSSC[C@@H]3NC(=O)[C@H](CO)NC(=O)CNC(=O)[C@H](CO)NC(=O)[C@H](CSSC[C@H](N)C(=O)N[C@@H](CCCCN)C(=O)N[C@@H](CO)C(=O)N[C@@H](CCCCN)C(=O)NCC(=O)N[C@@H](C)C(=O)N[C@@H](CCCCN)C(=O)N2)NC(=O)[C@H](CSSC[C@@H](C(N)=O)NC(=O)[C@H](CCCNC(=N)N)NC(=O)CNC(=O)[C@H](C(C)C)NC(=O)[C@H]([C@@H](C)O)NC(=O)CNC(=O)[C@H](CO)NC3=O)NC(=O)[C@H](CC(=O)O)NC(=O)[C@H](Cc2ccc(O)cc2)NC1=O [CVID] (H-CKSKGAKCSKLMYDCCSGSCSGTVGRC-NH2; disulfide 1-16, 8-20, 15-27)
IC50 [1]: 0.16 ± 0.025 µM
IC50 [2]: 0.0295 nM
IC50 [3]: 0.00309 nM
Kd [4]: 0.0032 ± 0.0002 µM

C[C@@H](O)[C@@H]1NC(=O)[C@H](Cc2ccc(O)cc2)NC(=O)[C@@H]2C[C@@H](O)CN2C(=O)[C@H](CC(N)=O)NC(=O)[C@@H]2CSSC[C@@H]3NC(=O)[C@H](CO)NC(=O)[C@H](CO)NC(=O)CNC(=O)[C@@H]4C[C@@H](O)CN4C(=O)[C@H](CO)NC(=O)[C@H](CCCCN)NC(=O)[C@@H](N)CSSC[C@H](NC(=O)[C@H](CSSC[C@@H](C(=O)N[C@@H](Cc4ccc(O)cc4)C(N)=O)NC(=O)[C@H](CCCN=C(N)N)NC(=O)[C@H](CCCCN)NC1=O)NC(=O)[C@H](CC(N)=O)NC(=O)[C@H](Cc1ccc(O)cc1)NC(=O)[C@H](CO)NC(=O)[C@H]([C@@H](C)O)NC(=O)[C@@H]1C[C@@H](O)CN1C(=O)[C@H](CO)NC3=O)C(=O)N[C@@H](CCCN=C(N)N)C(=O)N[C@@H](CO)C(=O)N2 [GVIA]
IC50 [1]: 0.15 ± 0.09 µM
IC50 [2]: 0.0372 nM
IC50 [3]: 0.0282 nM
Kd [4]: 0.00027 ± 8.4e-05 µM

NCC1(CC(=O)O)CCCCC1 [gabapentin]
Effect of α2δ binding on Cav2.2 trafficking and pain (in words) (α2δ): reducing Cav2.2 trafficking and the symptoms of pain

COCC(=O)O[C@]1(CCN(C)CCCc2nc3ccccc3[nH]2)CCc2cc(F)ccc2[C@@H]1C(C)C [mibefradil]
IC50 [5]: 3 ± 0.031 µM
Effect on resistant KCl-evoked Ca2+ responses (in words) [5, 8]: fully inhibited these remaining responses; also recorded: completely abolished
Inhibition of Cav3 responses (in words) (Cav3): weak affinity
Inhibition of L-type channels (in words) (L-type channels): also inhibit L-type channels

COC(=O)C1=C(C)NC(C)=C(C(=O)OC)C1c1ccccc1[N+](=O)[O-] [nifedipine]
Block of L-type KCl responses (in words) [6]: concentration-dependently blocked KCl responses

O=c1[nH]c2ccccc2n1C1CCN(CCCC(c2ccc(F)cc2)c2ccc(F)cc2)CC1 [pimozide]
IC50 [5]: 1.3 ± 0.097 µM
Effect on resistant KCl-evoked Ca2+ responses (in words) [5, 8]: fully inhibited the remaining responses; also recorded: completely abolished
Inhibition of L-type channels (in words) (L-type channels): also inhibit L-type channels

KCl
Hill slope [7]: 2.5 and 2.9 and 3.5
KCl-evoked Ca2+ response (in words) [7]: evoked a large transient response; also recorded: elicits maximal Cav1 and Cav2.2 responses
pEC50 for KCl-mediated stimulation [7]: 1.69±0.12
EC50 ([7]; read-out: Ca2+ stimulation EC50): 17300 ± 3410 µM

SNX 482
Ca2+ inhibition IC50, resistant responses [5]: NDR
Effect on resistant KCl-evoked Ca2+ responses (in words) [5]: no significant inhibitory effect; also recorded: not blocked

ω-agatoxin
Effect on resistant KCl-evoked Ca2+ responses (in words) [5]: not blocked

ω-agatoxin IVA
Effect on resistant KCl-evoked Ca2+ responses (in words) [5]: did not significantly affect KCl-evoked Ca^2+ responses
